Reference: PubChem BioAssay AID1645848
In brackets after ≈: the same amount, converted by molar mass.

details: buffer; pH 7.4; 6.0 h; 150.0 µM

Compared with C[C@]12CC[C@@H]3[C@H](CCC4=CC(=O)CC[C@]43C)[C@]1(O)CC[C@@]2(O)C(=O)CO, O=C(NCC1CCOCC1)C1CC(=O)N(c2n[nH]c3cc(Br)ccc23)C1 (configuration not stated) is lower in solubility kinetic: over 54 µg/mL for the first, 25.3 µg/mL (≈ 60.1 µM) for the second.

First: O=C(c1cnn(-c2cccc(F)c2)c1-n1cccc1)N1CCN(c2ccccc2F)CC1
Second: Cn1c(=O)c2cc(C(=O)NCCCN3CCN(c4ccccc4F)CC3)sc2c2ccccc21
The solubility kinetic of the first is higher: 1.11 µg/mL (≈ 2.56 µM) for the first, under 1 µg/mL for the second.

O=C1Nc2ccccc2/C1=C/c1cccc(C(=O)O)c1 and Fc1ccc(CN2CCNc3cc(Nc4ccccc4)ncc3C2)cc1F cannot be ordered by solubility kinetic: over 39 µg/mL for the first, 45.3 µg/mL (≈ 124 µM) for the second.

Compared with CC[C@@](C)(Nc1ccnc(-c2c[nH]c3ncccc23)n1)C(=O)NCC(F)(F)F, CCOC(=O)Nc1ccc(NCc2ccc(F)cc2)nc1N is lower in solubility kinetic: over 58 µg/mL for the first, 8.21 µg/mL (≈ 27 µM) for the second.

Going from CCN1CCC(N(Cc2ccc3c(c2)OCO3)C(=O)Nc2cc(Cl)ccc2C(=O)OC)CC1 to COc1c(O)ccc2c1CN1CCc3cc4c(cc3[C@@H]1C2)OCO4, the solubility kinetic falls from 58.5 µg/mL (≈ 123 µM) to 19.6 µg/mL (≈ 60.2 µM) (3-fold).

Cc1ccc(/C=C/c2nc3ccccc3n2S(=O)(=O)c2cccc(Cl)c2)cc1 and Cc1ccc(S(=O)(=O)N2CCCc3cc(NS(=O)(=O)c4ccccc4)ccc32)cc1 cannot be ordered by solubility kinetic: under 1 µg/mL for the first, under 1 µg/mL for the second.

O=C(Nc1nc2cc(C(F)(F)F)ccc2s1)c1ccc(-c2cccc([N+](=O)[O-])c2)o1 and O=C(Nc1ncc(Cc2ccccc2)s1)c1ccc(-c2cccc([N+](=O)[O-])c2)o1 cannot be ordered by solubility kinetic: under 1 µg/mL for the first, under 1 µg/mL for the second.

First: CCc1cccc(NC(=O)CSc2nc3ccccc3nc2N2CCCCC2)c1
Second: CCOC(=O)c1ccc(NC(=O)CSc2nc3c(cc2C#N)N2CCC3CC2)cc1
The solubility kinetic of the first is lower: under 1 µg/mL for the first, 1.15 µg/mL (≈ 2.71 µM) for the second.

Going from CCN(CC)C(=O)c1sc2c(c1C)c(=O)n(Cc1ccccc1)c(=O)n2CC(=O)Nc1ccc(OC)cc1 to CCN1C(=O)c2ccccc2S(=O)c2ccc(NC(=O)Cc3ccc(OC)cc3)cc21 (configuration not stated), the solubility kinetic rises from under 1 µg/mL to 6.41 µg/mL (≈ 14.7 µM).

CC(C)n1cc(-c2ccc(Oc3ccccc3)cc2)c2c(N)ncnc21 and CC(C)c1ccccc1-c1ncc(F)c(NC(C)(C)c2ccc(-c3cccnc3)cc2)n1 cannot be ordered by solubility kinetic: under 1 µg/mL for the first, under 1 µg/mL for the second.

First: Cc1ccc(S(=O)(=O)Nc2cnccc2C(=O)Nc2nc(-c3cc4ccccc4o3)cs2)cc1
Second: Cc1ccc(S(=O)(=O)Nc2cnccc2C(=O)Nc2nc(-c3ccccc3)cs2)cc1
The solubility kinetic of the first is 18-fold lower: 0.521 µg/mL (≈ 1.06 µM) for the first, 9.42 µg/mL (≈ 20.9 µM) for the second.

Compared with CNC(=O)C1=C(C)NC(Nc2nc3ccccc3o2)=NC1c1[nH]ncc1Cl (configuration not stated), Cc1cccc(C)c1NC(=O)c1nc(SC(C)C)ncc1Cl is lower in solubility kinetic: over 57 µg/mL for the first, 1.22 µg/mL (≈ 3.64 µM) for the second.

Brc1ccccc1-c1nc(NCc2ccc(-c3cccnc3)cc2)c2ccccc2n1 and Fc1cc(Nc2nc(-c3ccncc3)nc3ccccc23)ccc1-c1cccc(C(F)(F)F)c1 cannot be ordered by solubility kinetic: under 1 µg/mL for the first, under 1 µg/mL for the second.

Going from NC(=O)C1CCN(c2ncc(-c3cccc(F)c3)s2)CC1 to NC(=O)C1CCN(c2ncc(-c3cccc(N4CCOCC4)c3)s2)CC1, the solubility kinetic rises from 17.7 µg/mL (≈ 58.1 µM) to over 55 µg/mL.

Compared with S=c1[nH]c2ccccc2n1CCc1ccccc1, CCOC(=O)c1c(C)c(-c2ccccc2)n(CC(=O)NCc2ccccc2)c1C is lower in solubility kinetic: 5.04 µg/mL (≈ 19.8 µM) for the first, under 1 µg/mL for the second.

CCN(CCN(C)C)C(=O)C1CCN(S(=O)(=O)c2c(C)noc2/C=C/c2ccccc2F)CC1 and CN(C)c1cccc(-c2ncnc(N3CCC(C(N)=O)CC3)n2)c1 cannot be ordered by solubility kinetic: over 49 µg/mL for the first, over 48 µg/mL for the second.

First: Cc1cc(C)c(CNC(=O)c2nc(-c3cccc(CO)c3)cc3c2ccn3C)c(=O)[nH]1
Second: CC1=Nc2cc(C(=O)NCCc3ccccc3)ccc2Sc2c(C)ccc(C)c21
The solubility kinetic of the first is higher: 24.7 µg/mL (≈ 59.4 µM) for the first, under 1 µg/mL for the second.

Cc1ccc2nc(-c3cc(NC(=O)c4ccc5c(c4)OCCO5)ccc3Cl)oc2c1 and COc1ccc(-c2ccc3nc(-c4ccccc4C)oc3c2)c(OC)c1OC cannot be ordered by solubility kinetic: under 1 µg/mL for the first, under 1 µg/mL for the second.

COc1ccc(-n2c(C)c(C(C)=O)c3ccccc32)cc1 and COc1ccc(Nc2nc(-c3cccc(OC)c3)no2)cc1 cannot be ordered by solubility kinetic: under 1 µg/mL for the first, under 1 µg/mL for the second.

First: Fc1cc(F)cc(Nc2nc(-c3ccncc3)nc3ccccc23)c1
Second: Cc1cc(-c2nc(Nc3ccc(F)c(F)c3)c3ccccc3n2)ccn1
The solubility kinetic of the first is higher: 2.59 µg/mL (≈ 7.75 µM) for the first, under 1 µg/mL for the second.

Compared with O=c1cc(-c2nc(Nc3ccc(F)c(F)c3)c3ccccc3n2)cc[nH]1, C[C@H]1CN(C(=O)Nc2ccc(F)cc2)C[C@@H]1c1nc(-c2ccccc2)no1 is 2.9-fold lower in solubility kinetic: 11.9 µg/mL (≈ 34.1 µM) for the first, 4.11 µg/mL (≈ 11.2 µM) for the second.

Going from Cc1ccc(C(N)=O)cc1Nc1nccc(-c2cn(C(C)C)c3cnccc23)n1 to CCCc1ccc(-c2csc(NC(=O)c3ccncc3NS(=O)(=O)c3ccc(C)cc3)n2)cc1, the solubility kinetic falls from 45.2 µg/mL (≈ 117 µM) to under 1 µg/mL.

Going from Cc1cc(C)nc(NC(=S)N2CCN(c3cccc(C(F)(F)F)c3)CC2)c1 to Cc1cc(C)nc(NC(=S)N2CCN(c3ccc(Cl)cc3[N+](=O)[O-])CC2)c1, the solubility kinetic rises from 0.748 µg/mL (≈ 1.9 µM) to 3.08 µg/mL (≈ 7.59 µM) (4.1-fold).

Going from COc1ccc(-n2nc(C3CCCN([S+](=O)([O-])c4cccc(C(F)(F)F)c4)C3)[nH]c2=O)cc1 (configuration not stated) to Cc1cccc(-n2cnc3cc(C(=O)N4CCCC(C(F)(F)F)C4)ccc32)c1 (configuration not stated), the solubility kinetic rises from under 1 µg/mL to 45.3 µg/mL (≈ 117 µM).

Going from Cc1ccc(NS(=O)(=O)c2ccc3[nH]c4c(c3c2)CCCCCC4)cc1 to Cc1cc(NS(=O)(=O)c2ccc3c(c2)CCC(=O)N3)ccc1F, the solubility kinetic rises from under 1 µg/mL to over 49 µg/mL.

COc1cccc(NC(=O)c2cccc3c(=O)c4c([nH]c23)CCCC4)c1 and Cc1ccc(S(=O)(=O)Nc2cnccc2C(=O)Nc2nc(-c3ccc4c(c3)CCCC4)cs2)cc1 cannot be ordered by solubility kinetic: under 1 µg/mL for the first, under 1 µg/mL for the second.

First: Cc1nn2c(c1-c1ccccc1-c1ccccc1)N(Cc1ccc(O)cc1)CCC2
Second: Cc1ccccc1CN1C2=NCCN2C(=O)C2=C1CCN(Cc1ccccc1)C2
The solubility kinetic of the first is lower: under 1 µg/mL for the first, 26.7 µg/mL (≈ 69 µM) for the second.

Going from CCCCOc1ccc(C2c3c(oc4ccc(C)cc4c3=O)C(=O)N2CCCN(C)C)cc1OCC (configuration not stated) to CCOc1ccc(CCNC(=O)c2cc3ncccc3n2Cc2cccc(C)n2)cc1OCC, the solubility kinetic rises from 58.5 µg/mL (≈ 119 µM) to over 68 µg/mL.

Compared with Cc1ccc(C(=O)Nc2nc3nc(C)cc(=O)n3[nH]2)cc1, CCCNC(=O)c1ccc2c(c1)ncn2-c1cc(C)cc(C)c1 is lower in solubility kinetic: over 42 µg/mL for the first, under 1 µg/mL for the second.

First: COCCNC(=O)c1ccc(-c2ncc3cnc(-c4cccc(F)c4)cn23)cc1
Second: COc1ccc(NS(=O)(=O)c2ccc(C)cc2)c(C(=O)Nc2nc(-c3ccccc3)cs2)c1
The solubility kinetic of the first is higher: 28.1 µg/mL (≈ 71.9 µM) for the first, under 1 µg/mL for the second.

Going from CC(C)Nc1oc(-c2cccc3ccccc23)nc1C#N to CC(C)c1c(-c2ccccc2)nc2c(C#N)c[nH]n2c1=O, the solubility kinetic rises from under 1 µg/mL to over 41 µg/mL.

Going from CC[C@H]1CN2CCC3CC(OC)C(OC)CC3[C@@H]2C[C@@H]1C[C@H]1NCCC2=C1CC(OC)=C(O)C2 (some centres not stated) to CCOc1cc(=O)n2c(c1C(=O)Nc1cc(OC)c(Cl)cc1OC)CCCC2, the solubility kinetic rises from 44.6 µg/mL (≈ 93.9 µM) to over 60 µg/mL.

First: COc1ccc(NC(=O)c2cccnc2C)cc1S(=O)(=O)Nc1ccc(Br)cc1
Second: Cc1ccc(-c2cc(C(=O)Nc3ccc(S(=O)(=O)N(C)Cc4nccs4)cc3)c3ccccc3n2)cc1C
The solubility kinetic of the first is 7.1-fold higher: 26.4 µg/mL (≈ 55.5 µM) for the first, 3.73 µg/mL (≈ 6.88 µM) for the second.

Going from Cc1nnn(C)c1-c1cnc2c3ccc(C(C)(C)O)cc3n([C@H](c3ccccc3)C3CCOCC3)c2c1 to CCOc1ccc(NC(=O)c2cccc(-n3cccc3)c2)cc1S(=O)(=O)N1CCOCC1, the solubility kinetic falls from 29.6 µg/mL (≈ 59.6 µM) to 3 µg/mL (≈ 6.59 µM) (9.9-fold).

Compared with C=Cc1ccc(Cn2c(C(=O)O)c(CNCc3ccccc3)c3ccc(OC)cc32)cc1, CCOc1ccc(CCNC(=O)c2cc3ccccc3n2Cc2ccc(Cl)c(F)c2)cc1OCC is lower in solubility kinetic: 5.42 µg/mL (≈ 12.7 µM) for the first, under 1 µg/mL for the second.

Going from CC(C)(C)c1ccc(S(=O)(=O)N2CCC(c3ccncc3)CC2)cc1 to CCc1ccc(OC(C)C(=O)N2CCC(c3nc4ccccc4o3)CC2)cc1 (configuration not stated), the solubility kinetic rises from under 1 µg/mL to 17.9 µg/mL (≈ 47.3 µM).

First: N#Cc1cnc(NS(=O)(=O)c2ccc(NC(=O)Cc3ccc(F)c(Cl)c3)cc2)s1
Second: O=S(=O)(Nc1ccc(S(=O)(=O)Nc2nccs2)cc1)c1ccc2ccccc2c1
The solubility kinetic of the first is higher: over 67 µg/mL for the first, 33.2 µg/mL (≈ 74.6 µM) for the second.

First: CCCOC(=O)c1ccc(Oc2c(-c3ccc(O)cc3O)n[nH]c2C)cc1
Second: CCOC(=O)N1CCc2c(sc(NCc3ccc(N(C)C)cc3)c2C(=O)Nc2ccc(OC)cc2)C1
The solubility kinetic of the first is lower: under 1 µg/mL for the first, 2 µg/mL (≈ 3.93 µM) for the second.

First: CC(=O)c1ccc(-c2csc(N3CCC(C(N)=O)CC3)n2)cc1
Second: Brc1ccc(-c2csc(N3CCC(c4nn[nH]n4)CC3)n2)cc1
The solubility kinetic of the first is lower: 6.11 µg/mL (≈ 18.6 µM) for the first, over 58 µg/mL for the second.

Going from c1ccc(-c2nnc3n2NC(c2ccc4c(c2)OCO4)S3)cc1 (configuration not stated) to O=C(Nc1ncc(Cc2ccc(C(F)(F)F)cc2)s1)c1ccc(-c2ccccc2)o1, the solubility kinetic falls from 1.56 µg/mL (≈ 4.82 µM) to under 1 µg/mL.

Compared with CCn1cc(C(=O)O)c(=O)c2cnc(N3CCN(C(=S)Nc4ccccc4)CC3)nc21, CC(=O)N1CCc2c(sc3c2c(=O)n(-c2ccccc2)c(=O)n3Cc2cccc(C(F)(F)F)c2)C1 is lower in solubility kinetic: over 65 µg/mL for the first, 10 µg/mL (≈ 20.1 µM) for the second.

Going from N#Cc1ccc(S(=O)(=O)Nc2cnccc2C(=O)Nc2nc(-c3ccccc3)cs2)cc1 to O=C(Nc1ccc(C(=O)Nc2nccs2)cc1)c1ccc2ccccc2c1, the solubility kinetic falls from 6.96 µg/mL (≈ 15.1 µM) to under 1 µg/mL.

First: Cc1cc(-c2nnc3n2CCCCC3)c(C)n1-c1ccc([N+](=O)[O-])cc1
Second: Cc1nc(NC(=O)C2CC(=O)N(c3n[nH]c4cc(Br)ccc34)C2)sc1C (configuration not stated)
The solubility kinetic of the first is higher: over 52 µg/mL for the first, under 1 µg/mL for the second.

N#C/C(=C\c1ccc(Sc2ccc(Cl)cc2)o1)c1nc2ccccc2[nH]1 and COc1ccc(C2C=C(c3ccc(Cl)cc3)Nc3nc(-c4ccc(Cl)cc4)nn32)cc1 (configuration not stated) cannot be ordered by solubility kinetic: under 1 µg/mL for the first, under 1 µg/mL for the second.

Cc1c(-c2cccc3c(CCCOc4cccc5ccccc45)c(C(=O)O)n(Cc4cccnc4)c23)c(COc2ccc(N3CCN([S+](=O)([O-])N(C)C)CC3)cc2)nn1C and CCN1C(=O)c2ccccc2[S@](=O)c2ccc(C(=O)N[C@H](C)c3ccc4ccccc4c3)cc21 cannot be ordered by solubility kinetic: under 1 µg/mL for the first, under 1 µg/mL for the second.

Going from O=C(Nc1ccc([S+](=O)([O-])Nc2nccs2)cc1)c1ccn[nH]1 to COc1cc2nccc(Oc3ccc(NC(=O)C4(C(=O)Nc5ccc(F)cc5)CC4)cc3)c2cc1OC, the solubility kinetic falls from over 52 µg/mL to under 1 µg/mL.

Going from Cn1nnnc1Sc1ncnc2scc(-c3cccc(S(C)(=O)=O)c3)c12 to CCS(=O)(=O)N1CC(CC#N)(n2cc(-c3ncnc4[nH]ccc34)cn2)C1, the solubility kinetic rises from 44.8 µg/mL (≈ 111 µM) to over 55 µg/mL.

Compared with Brc1ccc(-c2csc(N3CCOCC3)n2)cc1, CC#CC(=O)N1CCC[C@H]1c1nc(-c2ccc(C(=O)Nc3ccccn3)cc2)c2c(N)nccn12 is higher in solubility kinetic: 1.12 µg/mL (≈ 3.44 µM) for the first, over 69 µg/mL for the second.

For CC1CCc2ccc(F)cc2N1S(=O)(=O)c1cccs1 (configuration not stated), the solubility kinetic was 3.12 µg/mL (≈ 10 µM).
